How the values were obtained:
HDAC2 = HDAC2 (Homo sapiens (Human), UniProt Q92769); assay: HDAC2 enzymatic inhibition assay in SY5Y cell lysate (HDAC-Glo 2); type: cell-based; conditions: SH-SY5Y cells, five hours incubation
Description: SH-SY5Y cells (Sigma) were cultured in Eagle's Modified Essential Medium supplemented with 10% fetal bovine serum and pen/strep. Twenty-four hours prior to compound dosing 20 uL of cells were plated in white 384 well plates at a density of 1,500 cells/well. Compounds were serially diluted in neat DMSO and then diluted 1:100 v/v into media without FBS and mixed. Media was removed from the plated cells and the diluted compounds in serum free media (1% v/v final DMSO) were added and incubated at 37.0 for five hours. Ten uL of HDAC-Glo 2 reagent with 0.1% Triton X-100 was then added, the plate was mixed and allowed to develop at room temperature for 100 minutes. Plates were then read with a Spectramax LMax luminometer employing a 0.4 s integration time. Dose response curves were constructed with normalized data where CI-994 at 100 uM was defined as 100% inhibition and DMSO alone as 0% inhibition.

[1] = test system: human myeloid progenitors (CFU-GM); assay: Myeloid CFU assay (colony forming cell assay, bone marrow); type: cell-based; conditions: 14 days in culture
Description: Compounds were tested to evaluate the potential effects on human erythroid and myeloid progenitors using colony forming cell assays. Clonogenic progenitors of human erythroid (CFU-E, BFU-E), granulocyte-monocyte (CFU-GM) and multipotential (CFU-GEMM) lineages were assessed in a semi-solid methylcellulose-based media formulation containing rhlL-3 (10 ng/mL), rhGM-SCF (10 ng/mL), rhSCF (50 ng/mL) and Epo (3 U/mL).
Normal human bone marrow light density cells derived from normal bone marrow (NorCal Biologics, California), were stored in the gaseous phase of liquid nitrogen (−152° C.) until required for the assay. On the day of the experiment, the cells were thawed rapidly, the contents of each vial was diluted in 10 mL of Iscove's modified Dulbecco's medium containing 10% fetal bovine serum (IMDM+10% FBS) and washed by centrifugation (approximately 1200 r.p.m. for 10 minutes, room temperature). The supernatant was discarded and the cell pellets resuspended in a known volume of IMDM+10% FBS. A cell count (3% glacial acetic acid) and viability assessment (trypan blue exclusion test) was performed for the bone marrow sample.
On the day of the experiment, the compounds were dissolved in DMSO to a stock concentration of 10 mM. Serial dilutions were prepared from the stock concentration to achieve concentrations of 2 and 0.4 mM. When added to the methylcellulose-based media at 1:1000 (v/v), the final test concentrations of 10, 2 and 0.4 μM were achieved. Additionally, 5-FU was evaluated at 1.0, 0.1 and 0.01 μg/mL.
Clonogenic progenitors of the human erythroid (CFU-E and BFU-E) and myeloid (CFU-GM) lineages were set up in the methylcellulose-based media formulations described above. All compounds were added to the medium to give the final desired concentrations (10, 2 and 0.4 μM). 5-Fluorouracil (Sigma Aldrich) was used as a positive control for progenitor proliferation (inhibition of colony growth) and was introduced to the human bone marrow cultures at 1.0, 0.1, and 0.01 μg/mL. Solvent control cultures (containing no compound but 0.1% DMSO) as well as standard controls (containing no compound and no DMSO) were also initiated.
Human myeloid and erythroid progenitor assays were initiated at 2.0×10^4 cells per culture. Following 14 days in culture, myeloid and erythroid colonies were assessed microscopically and scored by trained personnel. The colonies were divided into the following categories based on size and morphology: CFU-E, BFU-E, CFU-GM and CFU-GEMM.
The mean±one standard deviation of three replicate cultures was calculated for progenitors of each category (CFU-E, BFU-E, etc.). Two-tailed t-tests were performed to assess if there was a difference in the number of colonies generated between solvent control and treated cultures. Due to the potential subjectivity of colony enumeration, a p value of less than 0.01 is deemed significant. To calculate the concentration of 50% inhibition of colony growth (IC50) for each compound, a dose response curve was generated plotting the log of the compound concentration versus the percentage of control colony growth using XLfit software (IDBS). The concentration of 50% inhibition of colony growth (IC50) was calculated based on the sigmoid curve fit using Dose-Response, One-Site Model formula: y=A+[(B−A)/(1+((C/x)^D))], where A=the initial value (baseline response), B=maximum response, C=center (drug concentration that provokes a response halfway between A and B) and D=slope of the curve at midpoint. Further, plots and additional dose response curves were generated using GraphPad Prism 7.0.
Erythroid (CFU-E and BFU-E), myeloid (CFU-GM) and multi-potential (CFU-GEMM) colony enumeration was performed by trained personnel. The distribution of colony types as well as general colony and cellular morphology was analyzed. For statistical analysis colony numbers in compound treated cultures were compared to the solvent control cultures. […]

Sequence of HDAC2 (Q92769 whole entry): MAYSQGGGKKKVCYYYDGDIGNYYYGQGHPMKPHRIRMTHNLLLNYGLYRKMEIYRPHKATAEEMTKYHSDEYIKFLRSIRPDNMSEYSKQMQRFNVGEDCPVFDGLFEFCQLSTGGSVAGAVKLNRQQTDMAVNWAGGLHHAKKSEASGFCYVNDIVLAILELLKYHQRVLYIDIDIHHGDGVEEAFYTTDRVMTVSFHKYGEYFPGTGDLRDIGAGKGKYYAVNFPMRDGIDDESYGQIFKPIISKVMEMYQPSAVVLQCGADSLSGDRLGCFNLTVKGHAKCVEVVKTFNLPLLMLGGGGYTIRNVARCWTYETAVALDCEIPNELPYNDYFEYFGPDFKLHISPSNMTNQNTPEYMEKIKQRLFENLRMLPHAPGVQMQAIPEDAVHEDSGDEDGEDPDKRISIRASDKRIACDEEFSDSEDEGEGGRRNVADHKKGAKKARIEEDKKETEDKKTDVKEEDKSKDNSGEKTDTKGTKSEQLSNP

SMILES | IC50 (HDAC2) [nM] | Myeloid % control @ 10 uM dose [1] [%]
CCc1ncc2c(n1)CN(C(=O)Nc1nc(-c3cccs3)ccc1N)C2 [Compound 3] | 100 to 1000 | 89.4
Cc1ncc2c(n1)CN(C(=O)Nc1nc(-c3ccc(F)s3)ccc1N)C2 [Compound 2] | 1000 to 1500 | 87
Nc1ccc(-c2ccc(F)cc2)nc1NC(=O)N1Cc2cn(C3COC3)nc2C1 [Compound 1] | 100 to 1000 | 54
Cc1ncc(-c2ccc(N)c(NC(=O)N3Cc4cn(CC(F)F)nc4C3)n2)s1 [Compound 5] | 100 to 1000 | 
Cc1ncc2c(n1)CN(C(=O)Nc1nc(-c3ccc(F)cc3)ccc1N)C2 [Compound 14] | 100 to 1000 | 112

Now from value to compound:

IC50 (HDAC2) [nM] | Myeloid % control @ 10 uM dose [1] [%] | SMILES
100 to 1000 | 104 | Cc1cc2c(cn1)CN(C(=O)Nc1nc(-c3cccnc3)ccc1N)C2 [Compound 12]
100 to 1000 | 102 | CCc1cc2c(cn1)CN(C(=O)Nc1nc(-c3cccnc3)ccc1N)C2 [Compound 8]
100 to 1000 | 62.8 | COCCn1cc2c(n1)CN(C(=O)Nc1nc(-c3ccc(F)cc3F)ccc1N)C2 [Compound 9]
1000 to 1500 | 79.1 | CCc1ncc2c(n1)CN(C(=O)Nc1nc(-c3ccc(F)cc3)ccc1N)C2 [Compound 17]

From patent publication US10793567B2, “Bicyclic inhibitors of histone deacetylase” (Rodin Therapeutics, Inc., priority 2017, dated 2020)
